Legend:
mouse ENT-1 transporter = mouse ENT-1 transporter (Mus musculus (Mouse), UniProt Q9JIM1); test: Determination of adenosine transport activity (ENT1, [3H]-adenosine uptake); format: cell-based; settings: stable cells expressing mouse ENT-1; [2,8-3H]-adenosine 6 nM, 20 min
Description: To measure adenosine transport activity of ENT-1 mammalian cells, stable cells expressing the mouse ENT-1 transporter were plated on day 1 in 96-well culture plates at the density of 60,000 cells/well, in complete DMEM/F12 medium supplemented with glutamax, 10% FBS and 10 μg/ml puromycin. On day 2, the medium was aspirated and the cells were washed twice with uptake buffer (10 mM Hepes-Tris, pH 7.4 containing 150 mM NaCl, 1 mM
CaCl2, 2.5 mM KCl, 2.5 mM MgSO4, 10 mM D-glucose) (UB). For inhibition experiments, cells were then incubated at RT with various concentrations of compounds with 1% DMSO final. Non-specific uptake was defined in the presence of 10 μM S-(4-Nitrobenzyl)-6-thioinosine (NBTI, Sigma Cat #N2255).
A solution containing [2,8-^3H]-adenosine 6 nM (40 Ci/mmol, American Radiolabeled chemicals Inc, Cat #ART 0287A) was then immediately added to the wells. The plates were then incubated for 20 min with gentle shaking and the reaction was stopped by aspiration of the mixture and washing (three times) with ice-cold UB. The cells were lysed by the addition of scintillation liquid, shaken 3 hours and the radioactivity in the cells was estimated using a microplates scintillation counter (TopCount NXT, Packard).

[1] = test system: L-687,414-induced hyperlocomotion; test: L-687,414-induced hyperlocomotion; format: in vivo, mouse; settings: mice; 30 mg/kg ip, 15 min before 50 mg/kg s.c. L-687,414
Description: The described compounds of formula I reduce L-687,414-induced hyperlocomotion. This was assessed by using a computerized Digiscan 16 Animal Activity Monitoring System (Omnitech Electronics, Columbus, Ohio) to quantify locomotor activity. Animals were kept under a 12 h light/dark cycle and experiments were performed during the light period. Each activity monitoring chamber consisted of a Plexiglas box (41×41×28 cm; W×L×H) with sawdust bedding on the floor surrounded by invisible horizontal and vertical infrared sensor beams. The test boxes were divided by a Plexiglas cross providing each mouse with 20×20 cm of moving space. Cages were connected to a Digiscan Analyzer linked to a computer that constantly collected the beam status information. Records of photocell beam interruptions for individual animals were taken every 5 min over the duration of the experimental session and the sum of the first 6 periods was used as the final parameter. At least 8 mice were used in each treatment group. Compounds were administered i.p. 15 min before a s.c. injection of 50 mg/kg of L-687,414. Mice were then transferred from their home cage to the recording chambers for a 15-min habituation phase allowing free exploration of the new environment. Horizontal activity was then recorded for a 30-min time period. The % inhibition of L-687,414-induced hyperlocomotion was calculated according to the equation: ((Veh+L-687,414horizontal activity−drug+L-687,414horizontal activity)/Veh+L-687,414horizontal activity)×100
ID50 values, defined as doses of each compound producing 50% inhibition of L-687,414-induced hyperlocomotion, were calculated by linear regression analysis of a dose-response data using an Excel-based computer-fitting program.
As data was not presupposed to be normally distributed, groups treated with test compounds were statistically compared with the control (vehicle-treated) group using one-tailed Mann Whitney U tests. […]

[2] = test system: behavioral signature of compound-treated mice; test: SmartCube behavioral signature similarity analysis; format: in vivo, mouse; settings: for SmartCube similarity to major classes of compounds: i.p., in words; for discrimination rate vs Clozapine (1.0 mg/kg) / discrimination rate vs Olanzapine (0.25 mg/kg) / discrimination rate vs Risperidone (0.06 mg/kg): rate <=0.70 = similar
Excerpt: In addition to the reversal of L-687,414 induced hyperlocomotion experiment as described above, some compounds of the present invention have been tested in SmartCube®, an automated system in which the behaviors of compound-treated mice in response to multiple challenges are captured by digital video and analyzed with computer algorithms (Roberds et al., Frontiers in Neuroscience, 2011, Vol. 5, Art. 103, 1-4; Vadim Alexandrov, Dani Brunner, Taleen Hanania, Emer Leahy Eur. J. Pharmacol. 2015, 750, 82-99). In this way, the neuro-pharmacological effects of a test compound can be predicted by similarity to major classes of compounds, such as antipsychotics, anxiolytics and antidepressants.
SmartCube® was used to compare the behavioral signature of a test compound to a database of behavioral signatures obtained from a large set of clinically approved reference drugs, grouped per indications. In this way, the neuro-pharmacological effects of a test compound can be predicted by similarity to major classes of compounds, such as antipsychotics, anxiolytics and antidepressants. This approach is ideally suited to screen collections of existing drugs or drug candidates with previously unknown neuropharmacology, which could expedite the development of new and unexpected treatments for psychiatric disorders.
Some compounds of the present invention were injected i.p. at different doses 15 minutes before the test. At least 8 mice were used in each treatment group. Digital videos of the subjects were processed with computer vision algorithms to extract over 2000 dependent measures including frequency and duration of many different behavioral states. The results of the classifications are presented as bar charts for each compound and dose (mg/kg), the Y-axis indicates the relative probability that the test compound will show efficacy in the specific CNS indication.
Compounds of the present invention show similar signatures to those of atypical antipsychotics. An independent analysis was performed on the unclassified data to determine the similarity of the example compounds to active doses of known atypical antipsychotics. For this analysis, we use discrimination rate as the measure of separability between the two drugs, i.e. one drug's “distinguishability” from another. A rate equal to 50% (or 0.5) corresponds to zero distinguishability. […] In most cases, the example compounds show a similarity to risperidone, clozapine and olanzapine with a discrimination rate of ≤0.70.

Chain of mouse ENT-1 transporter (Q9JIM1 whole entry): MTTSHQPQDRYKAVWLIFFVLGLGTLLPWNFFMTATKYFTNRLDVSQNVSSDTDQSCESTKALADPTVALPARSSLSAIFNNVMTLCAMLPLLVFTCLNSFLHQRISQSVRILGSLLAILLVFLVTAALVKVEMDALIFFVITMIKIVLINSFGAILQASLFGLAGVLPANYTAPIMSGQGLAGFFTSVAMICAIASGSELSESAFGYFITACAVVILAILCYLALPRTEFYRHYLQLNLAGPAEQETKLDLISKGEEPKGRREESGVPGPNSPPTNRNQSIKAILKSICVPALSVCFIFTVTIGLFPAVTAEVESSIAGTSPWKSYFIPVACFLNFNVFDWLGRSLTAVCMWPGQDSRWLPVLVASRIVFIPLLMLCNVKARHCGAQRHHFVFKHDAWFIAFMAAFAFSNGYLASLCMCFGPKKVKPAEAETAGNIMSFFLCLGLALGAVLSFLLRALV

Row | Compound | IC50 (mouse ENT-1 transporter) [nM] | also measured
1 | Cc1ncc(-c2ccc3c(c2)N(c2ccc(S(C)(=O)=O)cn2)C(=O)C3(C)C)cn1 [Example 19, 3,3-Dimethyl-6-(2-methylpyrimidin-5-yl)-1-(5-(methylsulfonyl)pyridin-2-yl)indolin-2-one] | 157 | Inhibition, ip of L-687,414-induced hyperlocomotion [1]: 93.5%; SmartCube similarity to major classes of compounds [2]: similarity to atypical antipsychotics; discrimination rate vs Clozapine (1.0 mg/kg) ([2]; test compound 5 mg/kg i.p.): 0.54; discrimination rate vs Olanzapine (0.25 mg/kg) ([2]; test compound 5 mg/kg i.p.): 0.52; discrimination rate vs Risperidone (0.06 mg/kg) ([2]; test compound 5 mg/kg i.p.): 0.50
2 | Cc1cncc(-c2ccc3c(c2)N(c2cncc(S(C)(=O)=O)c2)C(=O)C3(C)C)c1 [Example 16, 3,3-Dimethyl-6-(5-methylpyridin-3-yl)-1-(5-(methylsulfonyl)pyridin-3-yl)indolin-2-one] | 313 | 
3 | 3,3-Dimethyl-6-(2-methyl-1-oxidopyrimidin-1-ium-5-yl)-1-(6-methylsulfonylpyrazin-2-yl)indol-2-one [Example 15] | 218 | 
4 | COCCN(C)S(=O)(=O)c1cncc(N2C(=O)C(C)(C)c3ccc(-c4cnc(C)nc4)cc32)c1 [Example 12, 5-(3,3-dimethyl-6-(2-methylpyrimidin-5-yl)-2-oxoindolin-1-yl)-N-(2-methoxyethyl)-N-methylpyridine-3-sulfonamide] | 79.3 | 
5 | CSc1cncc(N2C(=O)C(C)(C)c3ccc(-c4cnc(C)nc4)cc32)c1 [Example 9, 3,3-Dimethyl-6-(2-methylpyrimidin-5-yl)-1-(5-(methylthio)pyridin-3-yl)indolin-2-one] | 218 | 
6 | Cc1ncc(-c2ccc3c(c2)N(c2cncc(S(=O)(=O)N4CCC4)c2)C(=O)C3(C)C)cn1 [Example 11, 1-(5-(Azetidin-1-ylsulfonyl)pyridin-3-yl)-3,3-dimethyl-6-(2-methylpyrimidin-5-yl)indolin-2-one] | 169 | 
7 | Cc1ncc(-c2ccc3c(c2)N(c2cncc(S(N)(=O)=O)c2)C(=O)C3(C)C)cn1 [Example 10, 5-(3,3-Dimethyl-6-(2-methylpyrimidin-5-yl)-2-oxoindolin-1-yl)pyridine-3-sulfonamide] | 128 | 
8 | Cc1ncc(-c2ccc3c(c2)N(c2cncc(S(=O)(=O)C(C)C)c2)C(=O)C3(C)C)cn1 [Example 7, 1-(5-(Isopropylsulfonyl)pyridin-3-yl)-3,3-dimethyl-6-(2-methylpyrimidin-5-yl)indolin-2-one] | 135 | 
9 | Cc1ncc(-c2ccc3c(c2)N(c2ccc4ccsc4c2)C(=O)C3(C)C)cn1 [Example 1, 1-(Benzo[b]thiophen-6-yl)-3,3-dimethyl-6-(2-methylpyrimidin-5-yl)indolin-2-one] | 189 | 
10 | Cc1ncc(-c2ccc3c(c2)N(c2cncc(S(C)(=O)=O)c2)C(=O)C32CCC2)cn1 [Example 20, 6′-(2-Methylpyrimidin-5-yl)-1′-(5-(methylsulfonyl)pyridin-3-yl)spiro[cyclobutane-1,3′-indolin]-2′-one] | 230 | 
11 | Cc1ncc(-c2ccc3c(c2)N(c2cccc(S(C)(=O)=O)c2)C(=O)C3(C)C)cn1 [Example 5, 3,3-Dimethyl-6-(2-methylpyrimidin-5-yl)-1-(3-(methylsulfonyl)phenyl)indolin-2-one] | 106 | Inhibition, ip of L-687,414-induced hyperlocomotion [1]: 96%; SmartCube similarity to major classes of compounds [2]: similarity to atypical antipsychotics; discrimination rate vs Clozapine (1.0 mg/kg) ([2]; test compound 5 mg/kg i.p.): 0.55; discrimination rate vs Olanzapine (0.25 mg/kg) ([2]; test compound 5 mg/kg i.p.): 0.54; discrimination rate vs Risperidone (0.06 mg/kg) ([2]; test compound 5 mg/kg i.p.): 0.52
12 | Cc1ncc(-c2ccc3c(c2)N(c2cccc4sccc24)C(=O)C3(C)C)cn1 [Example 2, 1-(Benzo[b]thiophen-4-yl)-3,3-dimethyl-6-(2-methylpyrimidin-5-yl)indolin-2-one] | 844 | 

Compounds with a lower IC50 (mouse ENT-1 transporter), results first:

Row | IC50 (mouse ENT-1 transporter) [nM] | Compound | also measured
13 | 40.1 | Cc1ncc(-c2ccc3c(c2)N(c2cncc(S(C)(=O)=O)n2)C(=O)C3(C)C)cn1 [Example 4, 3,3-Dimethyl-6-(2-methylpyrimidin-5-yl)-1-(6-(methylsulfonyl)pyrazin-2-yl)indolin-2-one] | 
14 | 71.7 | CNS(=O)(=O)c1cncc(N2C(=O)C(C)(C)c3ccc(-c4cnc(C)nc4)cc32)c1 [Example 13, 5-(3,3-Dimethyl-6-(2-methylpyrimidin-5-yl)-2-oxoindolin-1-yl)-N-methylpyridine-3-sulfonamide] | 
15 | 40 | Cc1ncc(-c2ccc3c(c2)N(c2cncc(S(=O)(=O)C4CC4)c2)C(=O)C3(C)C)cn1 [Example 8, 1-(5-(Cyclopropylsulfonyl)pyridin-3-yl)-3,3-dimethyl-6-(2-methylpyrimidin-5-yl)indolin-2-one] | 
16 | 27 | Cc1ncc(-c2ccc3c(c2)N(c2cnc(S(C)(=O)=O)cn2)C(=O)C3(C)C)cn1 [Example 18, 3,3-Dimethyl-6-(2-methylpyrimidin-5-yl)-1-(5-(methylsulfonyl)pyrazin-2-yl)indolin-2-one] | 
17 | 27 | Cc1ncc(-c2ccc3c(c2)N(c2cncc(S(C)(=O)=O)c2)C(=O)C3(C)C)cc1F [Example 17, 6-(5-Fluoro-6-methylpyridin-3-yl)-3,3-dimethyl-1-(5-(methylsulfonyl)pyridin-3-yl)indolin-2-one] | 
18 | 32.1 | Cc1ncc(-c2ccc3c(c2)N(c2cncc(S(C)(=O)=O)c2)C(=O)C3(C)C)cn1 [Example 3, 3,3-Dimethyl-6-(2-methylpyrimidin-5-yl)-1-(5-(methylsulfonyl)pyridin-3-yl)indolin-2-one] | Inhibition, ip of L-687,414-induced hyperlocomotion [1]: 92.8%; SmartCube similarity to major classes of compounds [2]: similarity to atypical antipsychotics; discrimination rate vs Clozapine (1.0 mg/kg) ([2]; test compound 3 mg/kg i.p.): 0.58; discrimination rate vs Olanzapine (0.25 mg/kg) ([2]; test compound 3 mg/kg i.p.): 0.60; discrimination rate vs Risperidone (0.06 mg/kg) ([2]; test compound 3 mg/kg i.p.): 0.67
19 | 38.5 | Cc1ncc(-c2ccc3c(c2)N(c2cnc(C4CC4)c(S(C)(=O)=O)c2)C(=O)C3(C)C)cn1 [Example 14, 1-(6-Cyclopropyl-5-(methylsulfonyl)pyridin-3-yl)-3,3-dimethyl-6-(2-methylpyrimidin-5-yl)indolin-2-one] | 
20 | 44.9 | Cc1ncc(-c2ccc3c(c2)N(c2cncc(S(=O)(=O)N(C)C)c2)C(=O)C3(C)C)cn1 [Example 6, 5-(3,3-Dimethyl-6-(2-methylpyrimidin-5-yl)-2-oxoindolin-1-yl)-N,N-dimethylpyridine-3-sulfonamide] | 
